Assay results reported in the NIST ThermoML archive (doi:10.1016/j.tca.2016.02.005).
Numbers after ± are expanded uncertainties.

Assays:
[1] = refractive index (Na D-line) (dimensionless); xn = mol fraction of the nth substance listed; settings: 101.3 kPa, Liquid, Standard Abbe refractometry
[2] = xn = mol fraction of the nth substance listed; settings: 101.3 kPa, Liquid; for speed of sound: Frequency=3 MHz, Sing-around technique in a fixed-path interferometer; for mass density: Vibrating tube method

COCCO [2-methoxyethan-1-ol] + CCn1cc[n+](C)c1.F[B-](F)(F)F
Settings	mass density, [2] [kg/m3]	refractive index, [1]	speed of sound, [2] [m/s]
298.15 K, x2 = 0	960.9 ± 2	1.4003 ± 0.0004	1345.8 ± 1.5
298.15 K, x2 = 0.0515	993.6 ± 2	1.4031 ± 0.0004	1379.1 ± 1.6
298.15 K, x2 = 0.102	1022 ± 2	1.4052 ± 0.0004	1408.5 ± 1.6
298.15 K, x2 = 0.1502	1046.9 ± 2	1.4067 ± 0.0004	1433.7 ± 1.6
298.15 K, x2 = 0.21	1075 ± 2	1.408 ± 0.0004	1461.4 ± 1.6
298.15 K, x2 = 0.3051	1113.8 ± 2	1.4094 ± 0.0004	1498.3 ± 1.6
298.15 K, x2 = 0.3976	1145.5 ± 2	1.4101 ± 0.0004	1526.8 ± 1.6
298.15 K, x2 = 0.5036	1175.9 ± 2	1.4107 ± 0.0004	1552.1 ± 1.6
298.15 K, x2 = 0.6063	1200.7 ± 2	1.4111 ± 0.0004	1570.9 ± 1.6
298.15 K, x2 = 0.701	1220.6 ± 2	1.4115 ± 0.0004	1584.8 ± 1.6
298.15 K, x2 = 0.8024	1240.1 ± 2	1.4118 ± 0.0004	1597.7 ± 1.6
298.15 K, x2 = 0.8521	1249.4 ± 2	1.4117 ± 0.0004	1603.7 ± 1.6
298.15 K, x2 = 0.9	1258.3 ± 2	1.4115 ± 0.0004	1609.6 ± 1.6
298.15 K, x2 = 0.9502	1267.8 ± 2	1.4111 ± 0.0004	1616 ± 1.6
308.15 K, x2 = 0	951.7 ± 2	1.3961 ± 0.0004	1311.3 ± 1.5
308.15 K, x2 = 0.0515	984.6 ± 2	1.3991 ± 0.0004	1345.9 ± 1.6
308.15 K, x2 = 0.102	1013.2 ± 2	1.4014 ± 0.0004	1376.4 ± 1.6
308.15 K, x2 = 0.1502	1038.3 ± 2	1.4031 ± 0.0004	1402.7 ± 1.6
308.15 K, x2 = 0.21	1066.5 ± 2	1.4046 ± 0.0004	1431.6 ± 1.6
308.15 K, x2 = 0.3051	1105.5 ± 2	1.4061 ± 0.0004	1470 ± 1.6
308.15 K, x2 = 0.3976	1137.4 ± 2	1.407 ± 0.0004	1499.7 ± 1.6
308.15 K, x2 = 0.5036	1168 ± 2	1.4077 ± 0.0004	1526.1 ± 1.6
308.15 K, x2 = 0.6063	1192.9 ± 2	1.4082 ± 0.0004	1545.8 ± 1.6
308.15 K, x2 = 0.701	1212.9 ± 2	1.4087 ± 0.0004	1560.3 ± 1.6
308.15 K, x2 = 0.8024	1232.4 ± 2	1.4091 ± 0.0004	1573.6 ± 1.6
308.15 K, x2 = 0.8521	1241.7 ± 2	1.4091 ± 0.0004	1579.8 ± 1.6
308.15 K, x2 = 0.9	1250.6 ± 2	1.4089 ± 0.0004	1585.9 ± 1.6
308.15 K, x2 = 0.9502	1260.2 ± 2	1.4085 ± 0.0004	1592.5 ± 1.6
318.15 K, x2 = 0	942.7 ± 2	1.3917 ± 0.0004	1276.4 ± 1.5
318.15 K, x2 = 0.0515	975.9 ± 2	1.3951 ± 0.0004	1312.3 ± 1.6
318.15 K, x2 = 0.102	1004.7 ± 2	1.3977 ± 0.0004	1344.1 ± 1.6
318.15 K, x2 = 0.1502	1030 ± 2	1.3996 ± 0.0004	1371.4 ± 1.6
318.15 K, x2 = 0.21	1058.5 ± 2	1.4013 ± 0.0004	1401.5 ± 1.6
318.15 K, x2 = 0.3051	1097.9 ± 2	1.403 ± 0.0004	1441.5 ± 1.6
318.15 K, x2 = 0.3976	1130.1 ± 2	1.4039 ± 0.0004	1472.5 ± 1.6
318.15 K, x2 = 0.5036	1160.8 ± 2	1.4047 ± 0.0004	1500.1 ± 1.6
318.15 K, x2 = 0.6063	1185.8 ± 2	1.4053 ± 0.0004	1520.6 ± 1.6
318.15 K, x2 = 0.701	1205.8 ± 2	1.406 ± 0.0004	1535.7 ± 1.6
318.15 K, x2 = 0.8024	1225.2 ± 2	1.4064 ± 0.0004	1549.6 ± 1.6
318.15 K, x2 = 0.8521	1234.4 ± 2	1.4065 ± 0.0004	1556.1 ± 1.6
318.15 K, x2 = 0.9	1243.2 ± 2	1.4064 ± 0.0004	1562.4 ± 1.6
318.15 K, x2 = 0.9502	1252.5 ± 2	1.4059 ± 0.0004	1569.2 ± 1.6
328.15 K, x2 = 0	933.4 ± 2	1.3876 ± 0.0004	1241.9 ± 1.5
328.15 K, x2 = 0.0515	966.8 ± 2	1.3914 ± 0.0004	1279.2 ± 1.6
328.15 K, x2 = 0.102	995.8 ± 2	1.3943 ± 0.0004	1312.1 ± 1.6
328.15 K, x2 = 0.1502	1021.3 ± 2	1.3965 ± 0.0004	1340.5 ± 1.6
328.15 K, x2 = 0.21	1050 ± 2	1.3983 ± 0.0004	1371.7 ± 1.6
328.15 K, x2 = 0.3051	1089.6 ± 2	1.4002 ± 0.0004	1413.4 ± 1.6
328.15 K, x2 = 0.3976	1122 ± 2	1.4011 ± 0.0004	1445.7 ± 1.6
328.15 K, x2 = 0.5036	1152.9 ± 2	1.4018 ± 0.0004	1474.5 ± 1.6
328.15 K, x2 = 0.6063	1178 ± 2	1.4024 ± 0.0004	1495.9 ± 1.6
328.15 K, x2 = 0.701	1198.1 ± 2	1.403 ± 0.0004	1511.7 ± 1.6
328.15 K, x2 = 0.8024	1217.6 ± 2	1.4035 ± 0.0004	1526.2 ± 1.6
328.15 K, x2 = 0.8521	1226.8 ± 2	1.4036 ± 0.0004	1532.9 ± 1.6
328.15 K, x2 = 0.9	1235.6 ± 2	1.4035 ± 0.0004	1539.4 ± 1.6
328.15 K, x2 = 0.9502	1245 ± 2	1.4031 ± 0.0004	1546.4 ± 1.6
